Results: ChEMBL document CHEMBL1201862, “PubChem BioAssay data set” (2004)
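Results reflect a 48-hour exposure of cells in 96-well plates to compound at five concentrations. The concentration for 50% growth inhibition is given as GI50.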 The source made the active and inactive calls. No stated cut-off is given here; in the data, active = GI50 up to about 1.1 µM and inactive = higher.

What was measured:
Assay in all cases: inhibition of tumour cell growth, NCI panel, 48 h
UACC-62 = tested on: UACC-62
SK-OV-3 = tested on: SK-OV-3
OVCAR-4 = tested on: OVCAR-4
SNB-19 = tested on: SNB-19
SK-MEL-2 = tested on: SK-MEL-2
HCT-15 = tested on: HCT-15
TK-10 = tested on: TK-10
IGROV-1 = tested on: IGROV-1
EKVX = tested on: EKVX
SK-MEL-5 = tested on: SK-MEL-5
CAKI-1 = tested on: CAKI-1
COLO 205 = tested on: COLO 205
U-251 = tested on: U-251
OVCAR-8 = tested on: OVCAR-8
NCI/ADR-RES = tested on: NCI/ADR-RES
RPMI-8226 = tested on: RPMI-8226
SR = tested on: SR
MDA-MB-435 = tested on: MDA-MB-435
A549 = tested on: A549
K562 = tested on: K562
A498 = tested on: A498
UO-31 = tested on: UO-31
HOP-92 = tested on: HOP-92
HOP-62 = tested on: HOP-62
LOX IMVI = tested on: LOX IMVI
KM12 = tested on: KM12
DU-145 = tested on: DU-145
Hs-578T = tested on: Hs-578T
SK-MEL-28 = tested on: SK-MEL-28
ACHN = tested on: ACHN
HCC 2998 = tested on: HCC 2998
HL-60 = tested on: HL-60
T47D = tested on: T47D
SF-268 = tested on: SF-268
SW-620 = tested on: SW-620
NCI-H23 = tested on: NCI-H23
SF-295 = tested on: SF-295
OVCAR-3 = tested on: OVCAR-3
PC-3 = tested on: PC-3
Malme-3M = tested on: Malme-3M
M14 = tested on: M14
786-0 = tested on: 786-0
MCF7 = tested on: MCF7
SNB-75 = tested on: SNB-75
HT-29 = tested on: HT-29
NCI-H522 = tested on: NCI-H522
MDA-MB-231 = tested on: MDA-MB-231
MOLT-4 = tested on: MOLT-4
BT-549 = tested on: BT-549
OVCAR-5 = tested on: OVCAR-5
CCRF-CEM = tested on: CCRF-CEM
NCI-H460 = tested on: NCI-H460
UACC-257 = tested on: UACC-257
MDA-N = tested on: MDA-N
SN12C = tested on: SN12C
SF-539 = tested on: SF-539
NCI-H226 = tested on: NCI-H226
RXF 393 = tested on: RXF 393

Measured: GI50

Cc1cc(C)nc(NS(=O)(=O)c2ccc(Nc3c4ccccc4nc4c(C(=O)NC(CO)(CO)CO)cccc34)cc2)n1
inactive: UACC-62 31.3 µM | SK-OV-3 31.9 µM | OVCAR-4 45.9 µM | SNB-19 25.4 µM | SK-MEL-2 20.8 µM | TK-10 31.3 µM | IGROV-1 40.1 µM | EKVX 69 µM | SK-MEL-5 20.6 µM | CAKI-1 89.3 µM | COLO 205 20.1 µM | U-251 24.8 µM | OVCAR-8 39.3 µM | NCI/ADR-RES > 100 µM | RPMI-8226 22.8 µM | SR 23.2 µM | MDA-MB-435 24.9 µM | A549 27.5 µM | K562 31.4 µM | A498 31.3 µM | UO-31 85.1 µM | HOP-92 23.6 µM | HOP-62 26.7 µM | LOX IMVI 17.3 µM | KM12 17.9 µM | DU-145 55 µM | Hs-578T 38.4 µM | SK-MEL-28 27.1 µM | ACHN 34 µM | HCC 2998 16 µM | HL-60 31.6 µM | T47D 37.8 µM | SF-268 29.5 µM | SW-620 38.5 µM | NCI-H23 33.7 µM | SF-295 30.8 µM | OVCAR-3 29.3 µM | PC-3 35.6 µM | Malme-3M > 10 µM | M14 37.2 µM | 786-0 29 µM | MCF7 25.8 µM | SNB-75 5.65 µM | HT-29 28.1 µM | NCI-H522 13.9 µM | MDA-MB-231 32.1 µM | MOLT-4 6.1 µM | BT-549 21.8 µM | OVCAR-5 31.5 µM | CCRF-CEM 16.1 µM | NCI-H460 15.8 µM | UACC-257 42 µM | MDA-N 24.1 µM | SN12C 29.6 µM
52 µM: HCT-15

Nc1ccc(-c2nc3ccccc3s2)cc1I
active: TK-10 0.0521 µM | IGROV-1 0.0107 µM | NCI-H226 0.221 µM | OVCAR-3 0.0614 µM | MCF7 < 0.0116 µM | OVCAR-5 0.0817 µM
inactive: UACC-62 > 73.6 µM | SK-OV-3 > 65.6 µM | OVCAR-4 > 7.93 µM | SF-539 77.8 µM | SNB-19 54.2 µM | SK-MEL-2 > 100 µM | EKVX 14.9 µM | SK-MEL-5 58.7 µM | CAKI-1 > 100 µM | COLO 205 36 µM | U-251 34.4 µM | OVCAR-8 > 96.2 µM | NCI/ADR-RES > 100 µM | RPMI-8226 > 84.1 µM | SR 42 µM | MDA-MB-435 97.9 µM | A549 > 78 µM | K562 39.2 µM | A498 28.6 µM | UO-31 14.2 µM | HOP-62 37.3 µM | LOX IMVI 44.8 µM | KM12 52.5 µM | DU-145 > 100 µM | Hs-578T > 100 µM | SK-MEL-28 > 100 µM | ACHN > 87.1 µM | HCC 2998 5.06 µM | HL-60 24.2 µM | T47D 18.7 µM | SF-268 > 33.5 µM | SW-620 > 92.7 µM | NCI-H23 64.9 µM | SF-295 74.3 µM | PC-3 41.5 µM | Malme-3M 99.3 µM | M14 81.8 µM | 786-0 43.9 µM | SNB-75 41.9 µM | RXF 393 29.7 µM | HT-29 66.2 µM | NCI-H522 31.1 µM | MDA-MB-231 > 69.7 µM | MOLT-4 28.4 µM | BT-549 > 78 µM | CCRF-CEM 30.1 µM | NCI-H460 38.5 µM | UACC-257 > 100 µM | MDA-N > 100 µM | SN12C 35.6 µM
44.3 µM: HCT-15
